How the values were obtained:
[1] = system: participants with migraine (qualifying prodrome events); test: Phase 3 crossover study: absence of headache after treatment during the prodrome; assay type: in vivo, human
Description: (§1) A phase 3, multicenter, randomized, double-blind, placebo-controlled, crossover study was carried out to evaluate the efficacy, safety, and tolerability of oral ubrogepant in the acute treatment of migraine when administered during the prodrome. The study evaluated whether treatment during the initial phase of a migraine attack (i.e., the prodrome or premonitory phase) prior to the onset of headache, can attenuate the severity of the headache phase and reduce disability.
Eligible participants were able to treat two qualifying prodrome events, defined as a migraine attack with prodromal symptoms in which the participant was confident a headache would follow within 1-6 hours.
The primary endpoint was absence of moderate or severe intensity headache within 24 hours post-dose. Secondary endpoints were absence of moderate/severe intensity headache within 48 hours, ability to function normally over 24 hours, and absence of headache of any intensity within 24 hours post-dose.
The trial enrolled adults with 2-8 migraine attacks per month who stated that they could identify migraine attacks with prodromal symptoms reliably followed by headache. Using an e-diary, participants reported qualifying events, defined as a migraine attack with prodromal symptoms in which the participant was confident a headache would follow within 1-6 hours.
(§2) Eligible participants were randomized (1:1) to treatment sequences A or B in this crossover study. Participants randomized to Treatment Sequence A received placebo to treat their first qualifying prodrome event and ubrogepant 100 mg to treat their second qualifying prodrome event. For those randomized to Treatment Sequence B, they received the reverse: ubrogepant 100 mg to treat their first qualifying prodrome event and placebo to treat their second qualifying prodrome event.
The primary efficacy endpoint was the absence of a headache of moderate/severe intensity within 24 hours after taking double-blind study intervention during the prodrome. The secondary efficacy endpoints were the absence of a headache of moderate or severe intensity within 48 hours, ability to function normally over 24 hours, and absence of a headache of any intensity within 24 hours after taking double blind study interventions during the prodrome.
The overall study design is illustrated in FIG. 1. […] After meeting eligibility criteria, randomized participants were to treat two qualifying prodrome events with study intervention during the double-blind treatment period (between Visit 2 and Visit 4) (up to 60 days), separated by a clinic visit (visit 3) to ensure a minimum 7-day washout period. A post-treatment visit (visit 4) followed four days after the last treatment was taken.
To be eligible for study participation, participants must be 18 to 75 years of age (inclusive) at Visit 1, have at least a 1-year history of migraine with or without aura consistent with diagnosis according to the ICHD-3 (2018), and experience 2 to 8 migraine attacks with moderate to severe headache per month by history in each of the 3 months prior to screening. At the screening visit, participants were asked whether they could identify prodromal symptoms followed by migraine headache within 1 to 6 hours at least 75% of the time. […] After the screening period, to be eligible for randomization, the participant needed to record 3 to 16 qualifying prodrome events with at least 75% of these events followed by a headache, of any intensity, within 1 to 6 hours.
Participants were excluded if they had difficulty distinguishing migraine from tension-type or other headache types, or if they had chronic migraine, a trigeminal autonomic cephalalgia, or a painful cranial neuropathy. Participants who overused medication for migraine or had previous exposure to an injectable anti-CGRP monoclonal antibody within the previous 3 months were also excluded.
Participant flow is illustrated in FIG. 2. […]

[2] = system: participants with migraine (qualifying prodrome events); test: Phase 3 crossover study: satisfaction with study medication; assay type: in vivo, human; conditions: 100 mg in prodrome
Description: as §1, §2

[3] = 100 mg in prodrome, within 1 hour, mITT, observed cases
[4] = 100 mg in prodrome, within 2 hours, mITT, observed cases
[5] = 100 mg in prodrome, within 3 hours, mITT, observed cases
[6] = 100 mg in prodrome, within 4 hours, mITT, observed cases
[7] = 100 mg in prodrome, within 6 hours, mITT, observed cases
[8] = 100 mg in prodrome, within 8 hours, mITT, observed cases
[9] = 100 mg in prodrome, within 24 hours, mITT, observed cases
[10] = 100 mg in prodrome, within 24 hours, mITT, observed cases (primary analysis)
[11] = 100 mg in prodrome, within 24 hours, sensitivity analysis: Period 1 data only
[12] = 100 mg in prodrome, within 24 hours, sensitivity analysis: non-responder imputation
[13] = 100 mg in prodrome, within 24 hours, sensitivity analysis: testing carryover effect
[14] = 100 mg in prodrome, within 48 hours, mITT, observed cases

SMILES: C[C@@H]1[C@H](c2ccccc2)C[C@H](NC(=O)c2cnc3c(c2)C[C@@]2(C3)C(=O)Nc3ncccc32)C(=O)N1CC(F)(F)F [Ubrogepant, (3′S)—N-((3S,5S,6R)-6-methyl-2-oxo-5-phenyl-1-(2,2,2-trifluoroethyl)piperidin-3-yl)-2′-oxo-1′,2′,5,7-tetrahydrospiro[cyclopenta[b]pyridine-6,3′-pyrrolo[2,3-b]pyridine]-3-carboxamide]
- Absence of a headache of any intensity, Nonresponder (%) [1, 3]: (42.9) %
- Absence of a headache of any intensity, Odds Ratio vs. Placebo [1, 3]: 1.19
- Absence of a headache of any intensity, Responder (%) [1, 3]: (57.1) %
- Absence of a headache of moderate/severe intensity, Nonresponder (%) [1, 3]: (22.9) %
- Absence of a headache of moderate/severe intensity, Odds Ratio vs. Placebo [1, 3]: 1.30
- Absence of a headache of moderate/severe intensity, Responder (%) [1, 3]: (77.1) %
- Absence of a headache of severe intensity, Nonresponder (%) [1, 3]: (4.0) %
- Absence of a headache of severe intensity, Odds Ratio vs. Placebo [1, 3]: 1.21
- Absence of a headache of severe intensity, Responder (%) [1, 3]: (96.0) %
- Absence of a headache of any intensity, Nonresponder (%) [1, 4]: (55.7) %
- Absence of a headache of any intensity, Odds Ratio vs. Placebo [1, 4]: 1.34
- Absence of a headache of any intensity, Responder (%) [1, 4]: (44.3) %
- Absence of a headache of moderate/severe intensity, Nonresponder (%) [1, 4]: (35.4) %
- Absence of a headache of moderate/severe intensity, Odds Ratio vs. Placebo [1, 4]: 1.31
- Absence of a headache of moderate/severe intensity, Responder (%) [1, 4]: (64.6) %
- Absence of a headache of severe intensity, Nonresponder (%) [1, 4]: (7.4) %
- Absence of a headache of severe intensity, Odds Ratio vs. Placebo [1, 4]: 1.33
- Absence of a headache of severe intensity, Responder (%) [1, 4]: (92.6) %
- Absence of a headache of any intensity, Nonresponder (%) [1, 5]: (62.5) %
- Absence of a headache of any intensity, Odds Ratio vs. Placebo [1, 5]: 1.60
- Absence of a headache of any intensity, Responder (%) [1, 5]: (37.5) %
- Absence of a headache of moderate/severe intensity, Nonresponder (%) [1, 5]: (39.9) %
- Absence of a headache of moderate/severe intensity, Odds Ratio vs. Placebo [1, 5]: 1.71
- Absence of a headache of moderate/severe intensity, Responder (%) [1, 5]: (60.1) %
- Absence of a headache of severe intensity, Nonresponder (%) [1, 5]: (9.4) %
- Absence of a headache of severe intensity, Odds Ratio vs. Placebo [1, 5]: 1.41
- Absence of a headache of severe intensity, Responder (%) [1, 5]: (90.6) %
- Absence of a headache of any intensity, Nonresponder (%) [1, 6]: (67.3) %
- Absence of a headache of any intensity, Odds Ratio (95% CI) vs. Placebo [1, 6]: 1.76 (1.35, 2.30)
- Absence of a headache of any intensity, Responder (%) [1, 6]: (32.7) %
- Absence of a headache of moderate/severe intensity, Nonresponder (%) [1, 6]: (41.5) %
- Absence of a headache of moderate/severe intensity, Odds Ratio vs. Placebo [1, 6]: 1.91
- Absence of a headache of moderate/severe intensity, Responder (%) [1, 6]: (58.5) %
- Absence of a headache of severe intensity, Nonresponder (%) [1, 6]: (10.5) %
- Absence of a headache of severe intensity, Odds Ratio vs. Placebo [1, 6]: 1.70
- Absence of a headache of severe intensity, Responder (%) [1, 6]: (89.5) %
- Absence of a headache of any intensity, Nonresponder (%) [1, 7]: (71.0) %
- Absence of a headache of any intensity, Odds Ratio vs. Placebo [1, 7]: 1.79
- Absence of a headache of any intensity, Responder (%) [1, 7]: (29.0) %
- Absence of a headache of moderate/severe intensity, Nonresponder (%) [1, 7]: (46.6) %
- Absence of a headache of moderate/severe intensity, Odds Ratio vs. Placebo [1, 7]: 1.86
- Absence of a headache of moderate/severe intensity, Responder (%) [1, 7]: (53.4) %
- Absence of a headache of severe intensity, Nonresponder (%) [1, 7]: (12.5) %
- Absence of a headache of severe intensity, Odds Ratio vs. Placebo [1, 7]: 1.77
- Absence of a headache of severe intensity, Responder (%) [1, 7]: (87.5) %
- Absence of a headache of any intensity, Nonresponder (%) [1, 8]: (72.5) %
- Absence of a headache of any intensity, Odds Ratio vs. Placebo [1, 8]: 1.85
- Absence of a headache of any intensity, Responder (%) [1, 8]: (27.5) %
- Absence of a headache of moderate/severe intensity, Nonresponder (%) [1, 8]: (48.2) %
- Absence of a headache of moderate/severe intensity, Odds Ratio vs. Placebo [1, 8]: 2.01
- Absence of a headache of moderate/severe intensity, Responder (%) [1, 8]: (51.8) %
- Absence of a headache of severe intensity, Nonresponder (%) [1, 8]: (13.1) %
- Absence of a headache of severe intensity, Odds Ratio vs. Placebo [1, 8]: 1.89
- Absence of a headache of severe intensity, Responder (%) [1, 8]: (86.9) %
- Absence of a headache of any intensity, Nonresponder (%) [1, 9]: (76.3) %
- Absence of a headache of any intensity, Odds Ratio vs. Placebo [1, 9]: 1.93
- Absence of a headache of any intensity, Responder (%) [1, 9]: (23.7) %
- Absence of a headache of severe intensity, Nonresponder (%) [1, 9]: (14.5) %
- Absence of a headache of severe intensity, Odds Ratio vs. Placebo [1, 9]: 1.83
- Absence of a headache of severe intensity, Responder (%) [1, 9]: (85.5) %
- Absence of a headache of moderate/severe intensity, Nonresponder (%) [1, 10]: (54.5) %
- Absence of a headache of moderate/severe intensity, Odds Ratio vs. Placebo [1, 10]: 2.09
- Absence of a headache of moderate/severe intensity, Responder (%) [1, 10]: (45.5) %
- Absence of a headache of moderate/severe intensity, Responder (%) ([1]; 100 mg in prodrome, within 24 hours, mITT, observed cases (primary analysis), listed as ubrogepant): 45.5%
- Absence of a headache of any intensity, Responder (%) ([1]; 100 mg in prodrome, within 24 hours, mITT, observed cases, listed as ubrogepant): 23.7%
- Absence of a headache of moderate/severe intensity, Nonresponder (%) [1, 11]: (52.6) %
- Absence of a headache of moderate/severe intensity, Odds Ratio vs. Placebo [1, 11]: 2.11
- Absence of a headache of moderate/severe intensity, Responder (%) [1, 11]: (47.4) %
- Absence of a headache of moderate/severe intensity, Nonresponder (%) [1, 12]: (57.6) %
- Absence of a headache of moderate/severe intensity, Odds Ratio vs. Placebo [1, 12]: 2.01
- Absence of a headache of moderate/severe intensity, Responder (%) [1, 12]: (42.4) %
- Absence of a headache of moderate/severe intensity, Nonresponder (%) [1, 13]: (54.5) %
- Absence of a headache of moderate/severe intensity, Odds Ratio vs. Placebo [1, 13]: 2.09
- Absence of a headache of moderate/severe intensity, Responder (%) [1, 13]: (45.5) %
- Absence of a headache of any intensity, Nonresponder (%) [1, 14]: (81.4) %
- Absence of a headache of any intensity, Odds Ratio vs. Placebo [1, 14]: 1.90
- Absence of a headache of any intensity, Responder (%) [1, 14]: (18.6) %
- Absence of a headache of moderate/severe intensity, Nonresponder (%) [1, 14]: (59.3) %
- Absence of a headache of moderate/severe intensity, Odds Ratio vs. Placebo [1, 14]: 2.13
- Absence of a headache of moderate/severe intensity, Responder (%) [1, 14]: (40.7) %
- Absence of a headache of severe intensity, Nonresponder (%) [1, 14]: (17.4) %
- Absence of a headache of severe intensity, Odds Ratio vs. Placebo [1, 14]: 1.71
- Absence of a headache of severe intensity, Responder (%) [1, 14]: (82.6) %
- Absence of a headache of moderate/severe intensity, Responder (%) ([1]; 100 mg in prodrome, within 48 hours, mITT, observed cases, listed as ubrogepant): 40.7%
- Reducing the development of moderate/severe headache within 24 and 48 hours and of headache of any intensity within 24 hours ([1]; administered during the prodrome): superior to placebo
- Satisfaction with study medication, Odds ratio vs placebo ([2]; 8 Hours post-dose): 2.37
- Satisfaction with study medication, responder rate (%) (satisfied or extremely satisfied) ([2]; 8 Hours post-dose): (66.0) %
- Satisfaction with study medication, Odds ratio vs placebo ([2]; 24 Hours post-dose): 2.32
- Satisfaction with study medication, responder rate (%) (satisfied or extremely satisfied) ([2]; 24 Hours post-dose): (65.6) %
- Satisfaction with study medication, responder rate (%) (satisfied or extremely satisfied) ([2]; 24 Hours post-dose, listed as ubrogepant): 65.6%

— patent publication US20260130901A1, “CGRP RECEPTOR ANTAGONIST FOR THE TREATMENT OF MIGRAINE” (ALLERGAN PHARMACEUTICALS INTERNATIONAL LIMITED, priority 2022, published 2026)
